Data set [1] has as its system PAO200 P. aeruginosa bacteria, the MexAB-OprM efflux pump minus strain of PAO1. As to the kind of experiment: microbe, parasite or virus in culture. Conditions: Pseudomonas aeruginosa, PAO1, read-out: PAO200 IC50 (μM). The class given is cell-based.
For another data set, the system named is PAO1. As to the kind of experiment: microbe, parasite or virus in culture. It is filed as cell-based. To be noted: Pseudomonas aeruginosa, PAO1, read-out: PAO01 IC50 (μM).
Data set [2] has as its system E. coli W3110 a TolC::Tn10 inclusive strain. Description: microbe, parasite or virus in culture. It is filed as cell-based. Conditions: Escherichia coli, read-out: W3110 IC50 (μM).
Data set [3] deals with NRS135 gram-positive S. aureus strain expressing NorA::tetM. As to the kind of experiment: microbe, parasite or virus in culture. The class given is cell-based. To be noted: Staphylococcus aureus, NRS135, read-out: NRS135 IC50 (μM).
The next data set in a line: in vitro. Conditions: human, wild-type HepG2 cells (ATCC).

As usually defined, the IC50 is the concentration that inhibits the measured activity by half. For orientation: CC50 means the concentration that lowers cell viability or growth by half. A higher CC50 goes with lower toxicity to the cells.

Take `O=C(Nc1ccc(N2CCOCC2)cc1)c1cccc(-n2cc(Nc3nnnn3C3CCCCC3)cn2)c1` [Compound 12]: the IC50 in data set [1] is 22.3 µM; in the data set on PAO1, 103 µM; in data set [2], 29.1 µM; in data set [3], 38.7 µM.
Consider `c1ccc(CNc2ncnc3c2[nH]c2ccccc23)cc1` [Compound 16], for which the IC50 in data set [1] was 41.5 µM; with PAO1 it was at least 55 µM; in data set [2], 15.9 µM; in data set [3], at least 55 µM. In the data set “in vitro”, this compound returned a CC50 above 24.8 µM.
For the compound `Cc1cc(F)ccc1NC(=S)Nc1ccc(S(=O)(=O)Nc2ncccn2)cc1` [Compound 11], the IC50 in data set [1] is 28.2 µM; in the data set with PAO1, at least 55 µM; in data set [2], 7.08 µM; in data set [3], at least 55 µM. This compound also gave a 50% cytotoxic concentration (CC50) in “in vitro” above 24.8 µM.
As to `Cc1c(Nc2nc3nonc3nc2Nc2ccc(F)cc2)c(=O)n(-c2ccccc2)n1C` [Compound 5], the half-inhibitory concentration (IC50) in data set [1] turned out to be 39.2 µM; in the data set with PAO1 it was 42 µM; in data set [2] it was 3.77 µM; in data set [3], 9.37 µM. Further, in the data set “in vitro”, the midpoint of cytotoxicity, the CC50, lay at 20.6 µM.
On the same counts, the results for `N#Cc1cccc(NC(=O)Nc2cccc(Cl)c2)c1` [Compound 6] are 24.7 µM, 55 µM, 5.99 µM, 19.8 µM and 21.1 µM.
On the same counts, the results for `O=[N+]([O-])c1c(Nc2ccccc2)cc(Cl)c2nonc12` [Compound 2] are 1.3 µM, 18 µM, 15.2 µM, 2.47 µM and above 20 µM.
For `O=C(Nc1ccc([N+](=O)[O-])cc1)NC(C(F)(F)F)C(F)(F)F` [Compound 8], the half-inhibitory concentration (IC50) in data set [1] came out at 31.5 µM; in the data set with PAO1 it was 39.5 µM; in data set [2], 8.89 µM; in data set [3] it was 18.1 µM.
As to `O=C(CCn1cnc2ccccc2c1=O)Nc1cccc(Cl)c1` [Compound 15], the IC50 in data set [1] was 2.7 µM; in the data set with PAO1, 38.6 µM; in data set [2], 0.873 µM; in data set [3], 47.4 µM. The CC50 in the data set “in vitro” was above 24.8 µM.
On the same counts, the results for `O=S(=O)(Nc1nccs1)c1ccc(NC(=S)Nc2ccc(F)cc2)cc1` [Compound 10] are 12.5 µM, at least 55 µM, 4 µM, 17.5 µM and above 24.8 µM.
In the case of `COc1cc(NC(=O)c2cccc(-n3cc(Nc4nnnn4-c4ccccc4)cn3)c2)ccc1N1CCOCC1` [Compound 13], the IC50 stood at 13.9 µM in data set [1], 95.7 µM with PAO1, 8.71 µM in data set [2] and 15.6 µM in data set [3].
For the compound `CCOC(=O)c1cccc(-n2cc(Nc3nnnn3-c3ccccc3)cn2)c1` [Compound 14], the IC50 in data set [1] is 20.5 µM; in the data set on PAO1 it was at least 55 µM; in data set [2] it was 14.6 µM; in data set [3], 43.6 µM. The compound also showed a CC50 in the data set “in vitro” above 24.8 µM.
In the same order, the values of `N#Cc1ccc(NC(=O)Nc2cccc(Cl)c2)cc1` [Compound 7] are 24.7 µM, at least 55 µM, 3.82 µM, 9.77 µM and 23.8 µM.
On the same counts, the results for `Cc1ccc(Nc2nc3nonc3nc2NC(C)C)cc1C` [Compound 4] are 24.7 µM, at least 55 µM, 6.29 µM, 26.5 µM and 11.4 µM.
In the same order, the values of `COc1cccc(CN2CCC3(CC2)NCCc2c3[nH]c3ccccc23)c1` [Compound 17] are 39 µM, 28.2 µM, 47.4 µM, at least 55 µM and above 24.8 µM.
`CNc1cc(Cl)c2nonc2c1[N+](=O)[O-]` [Compound 3] displayed a CC50 in “in vitro” above 25.4 µM.
Take `O=S(=O)(Nc1nccs1)c1ccc(NC(=S)Nc2ccccc2)cc1` [Compound 9]: the 50% inhibitory concentration (IC50) in data set [1] is 12.3 µM; with PAO1 it was at least 55 µM; in data set [2] it was 3.8 µM; in data set [3], 21.9 µM. This compound also showed a CC50 in “in vitro” above 24.8 µM.
